Test system: pigs
Assay: Intrapericardial administration of RTX alone or RTX in combination with QX-314 in anesthetized pigs; heart rate and blood pressure
Type: in vivo
Conditions: 15 mL, RTX 12.5 µg/mL, QX-314 10, 20, 30 or 40 µM where combined, aspirated after 20 minutes
Method: We evaluated the effects of the TRPV1 modulator RTX alone and in combination with QX-314 on cardiovascular function, specifically heart rate and blood pressure, in pigs. Animals were first sedated with telazol (4-8 mg/kg, intramuscular), intubated, and mechanically ventilated. General anesthesia was maintained with isoflurane (1-2%, inhaled). A 12-lead surface electrocardiogram and arterial blood pressure were continuously obtained using a GE Healthcare CardioLab system. Local anesthesia with 1% lidocaine was then administered to the left sternocostal angle before making a small incision. Percutaneous access into the pericardial space was obtained using a Touhy needle under fluoroscopic guidance (see FIG. 1). Contrast was used to visualize the advancement of the needle tip, and intrapericardial access was confirmed by passing a wire through the needle and inducing cardiac ectopy. After confirming access, a sheath was introduced into the pericardial space over the wire. A 12.5 µg/mL RTX solution was prepared by first creating a stock solution of 0.1 mg/mL by dissolving 0.5 mg of RTX powder in 2.5 mL of dimethyl sulfoxide and 2.5 mL of 0.9% sodium chloride, and then diluting the stock solution to 12.5 µg/mL by adding 1.87 mL of it to 13.13 mL of 0.9% sodium chloride. […]

C=C(C)[C@]12C[C@@H](C)[C@@]34O[C@](Cc5ccccc5)(O[C@@H]1[C@@H]3C=C(COC(=O)Cc1ccc(O)c(OC)c1)C[C@]1(O)C(=O)C(C)=C[C@@H]41)O2 [RTX, resiniferatoxin] was tested, and the “blood pressure change from baseline (FIG. 2B, FIG. 2C)” value was “significant increase” and the “heart rate change from baseline (FIG. 2A)” value was “significant increase”.
